According to patent US20170231949A1, “CELL REPAIR AGENT AND DISINFECTION SYSTEM” (priority 2014, published 2017):

What was measured:
Type in all cases: cell-based
[1] = system: mouse fibroblasts in growth phase; test: Tests 4, 6, 7, 8: post-treatment after acidic electrolyzed water, degree of cell proliferation by MTT method; conditions: 24 hours culture
Method: (§1) Similarly to Test 1, mouse fibroblasts in growth phase were treated with four-fold-diluted acidic electrolyzed water and undiluted acidic electrolyzed water for 30 seconds. After washing with phosphate-buffered saline, 100 μl of 140 mM DMSO or 1 mg/ml proanthocyanidin prepared with serum-free DMEM was added to each well, and then cells were cultured for 30 minutes under conditions of 37° C. and 5% CO2. After washing with PBS, fresh medium was added, and then the degree of cell proliferation after 24 hours of culture under conditions of 37° C. and 5% CO2 was determined by the MTT method. In addition, a significant difference between groups was tested by Tukey-Krammer's multiple comparison test (multiple comparative analysis).
as §1, with “4,” for “1,”, “PBS,” for “phosphate-buffered saline,”, “of” for “of 140 mM DMSO or”, “(+)-catechin (Tokyo Chemical Industry Co., Ltd.)” for “proanthocyanidin”, “followed by” for “and then cells were cultured for”, “minutes of culture” for “minutes”
Similarly to Test 4, mouse fibroblasts in growth phase were treated with undiluted acidic electrolyzed water for 30 seconds. After washing with PBS, 100 μl of 1 mg/ml chlorogenic acid (Sigma-Aldrich), caffeic acid (Tokyo Chemical Industry Co., Ltd.) or gallic acid (Tokyo Chemical Industry Co., Ltd.) prepared with serum-free DMEM was added to each well, followed by 5 or 30 minutes of culture under conditions of 37° C. and 5% CO2. After washing with PBS, fresh medium was added, and then the degree of cell proliferation after 24 hours of culture under conditions of 37° C., 5% CO2 was determined by the MTT method. In addition, a significant difference between groups was tested by Tukey-Krammer's multiple comparison test (multiple comparative analysis).
Similarly to Test 4, mouse fibroblasts in growth phase were treated with undiluted acidic electrolyzed water for 30 seconds. After washing with PBS, 100 μl of 1 mg/ml proanthocyanidin prepared with serum-free DMEM was added to each well, and the resultants were each left to sit at room temperature for 1 minute and 5 minutes. After washing with PBS, fresh medium was added, and then the degree of cell proliferation after 24 hours of culture under conditions of 37° C. and 5% CO2 was determined by the MTT method. In addition, a significant difference between groups was tested by Tukey-Krammer's multiple comparison test (multiple comparative analysis).

[2] = system: human gingival fibroblasts in growth phase; test: Test 5: post-treatment after acidic electrolyzed water, degree of cell proliferation by MTT method; conditions: four-fold-diluted or undiluted AEW 30 seconds, then 140 mM DMSO or 1 mg/ml proanthocyanidin for 30 minutes; 24 hours culture
Method: A test similar to Test 4 was conducted for human gingival fibroblasts in growth phase. First, human gingival fibroblasts (purchased from Primary Cell Co., Ltd.) were cultured in a 25 cm^2 flask under conditions of 37° C. and 5% CO2, and then a cell suspension was prepared similarly to the case of mouse fibroblasts in medium to a cell density of 2×10^4 cells/ml. 100 μl each of the cell suspension was seeded to each well of a 96-well microplate.

[3] = system: mouse fibroblasts in stationary phase; test: Test 3: impact of DMSO and proanthocyanidin on intracellular ROS levels increased by acidic electrolyzed water; conditions: four-fold-diluted or undiluted AEW 30 seconds, then 140 mM DMSO or 1 mg/ml proanthocyanidin, 1 hour
Method: Specifically, 100 μl of 1 mM 2',7'-dichlorodihydrofluorescin Diacetate (DCFH-DA) dissolved in serum-free medium (DMEM only) was added to each well, and then cells were cultured for 1 hour under conditions of 37° C. and 5% CO2. After culture, washing with phosphate-buffered saline was performed, 100 μl of 2× Cell Lysis Buffer (Cell Biolabs) and 100 μl of serum-free DMEM were added, and then the resultants were left to stand for 5 minutes. 150 μl of the resultants was transferred from each well to a black 96-well microplate, fluorescence intensities were measured at an excitation wavelength of 450 nm and a fluorescence wavelength of 530 nm using a microplate reader (“FilterMaxTM F5 Multi-Mode Microplate Reader”, Molecular Devices). A standard curve was prepared using 2',7'-dichlorodihydrofluorescein (DCF), and intracellular ROS levels were represented by DCF equivalents (nM). In addition, a significant difference to the average value of each control group (control) was tested by Dunnett's multiple comparison test (multiple comparative analysis). Similarly to Test 2, mouse fibroblasts in stationary phase were treated with four-fold-diluted acidic electrolyzed water and undiluted acidic electrolyzed water for 30 seconds. […] After culture, similarly to Test 2, intracellular ROS levels were determined.

[4] = undiluted AEW 30 seconds, then 1 mg/ml test substance for 5 or 30 minutes

For `O=C(/C=C/c1ccc(O)c(O)c1)O[C@@H]1C[C@](O)(C(=O)O)C[C@@H](O)[C@H]1O` [chlorogenic acid], the “cell proliferation state (degree of cell proliferation, MTT)” value (“cell proliferation state” below) [1, 4] was “significantly improved”.
In the case of `C[S+](C)[O-]` [DMSO, dimethyl sulfoxide], the “cell proliferation state” value ([1]; four-fold-diluted and undiluted AEW 30 seconds, then 140 mM DMSO or 1 mg/ml proanthocyanidin for 30 minutes) is reported as “no change”, the “cell proliferation state” value [2] is reported as “no change” and the “ROS level increased by acidic electrolyzed water” value [3] is reported as “significantly decreased”.
With `Oc1cc(O)c2c(c1)O[C@H](c1ccc(O)c(O)c1)[C@@H](O)C2` [(+)-catechin] the “cell proliferation state” value ([1]; four-fold-diluted and undiluted AEW 30 seconds, then 1 mg/ml (+)-catechin for 30 minutes) was “significantly improved”.
With `O=C(O)c1cc(O)c(O)c(O)c1` [gallic acid] the “cell proliferation state” value [1, 4] was “significantly improved”.
In the case of `O=C(O)/C=C/c1ccc(O)c(O)c1` [caffeic acid], the “cell proliferation state” value [1, 4] is reported as “significantly improved”.
